# Experimental data published in patent US10620222B2, “Electrified compositions for determining the risk of developing adolescent idiopathic scoliosis through the use of GI protein receptor” (CHU Sainte-Justine, priority 2008, dated 2020).
# Several values for one entry are separate records, joined by “and”; a condition that tells them apart may be missing. Equal entries are not always repeated.
# Test system: receptors coupled to Gi proteins expressed on osteoblasts
# Test: Cellular Dielectric Spectroscopy (CDS, CELLKEY) response to Gi-coupled receptor ligands in osteoblasts from control and AIS subjects
# Assay type: cell-based, human
# Design: % of control / % of control signal, Group 1, min diff. / % of control signal, Group 2, min diff. / % of control signal, Group 3, min diff.: concentration or dose not given beside the values; dZiec value / Absolute dZiec, control value of max diff. (maximal control value): unit not given here
# Settings: for dZiec value / Absolute dZiec, control value of max diff. (maximal control value) / Absolute dZiec, control value of min diff. (minimal control value) / Absolute dZiec, Group 1, max diff. (group value) / Absolute dZiec, Group 1, min diff. (group value) / Absolute dZiec, Group 2, max diff. (group value) / Absolute dZiec, Group 2, min diff. (group value) / Absolute dZiec, Group 3, max diff. (group value) / Absolute dZiec, Group 3, min diff. (group value): 300 μM ligand; for dZiec value: n1, n2 of Exper. 1-3; for Absolute dZiec, control value of max diff. (maximal control value) / Absolute dZiec, control value of min diff. (minimal control value): osteoblasts of control subjects; for Absolute dZiec, control value of max diff. (maximal control value) / Absolute dZiec, control value of min diff. (minimal control value) / Absolute dZiec, Group 1, max diff. (group value) / Absolute dZiec, Group 1, min diff. (group value) / Absolute dZiec, Group 2, max diff. (group value) / Absolute dZiec, Group 2, min diff. (group value) / Absolute dZiec, Group 3, max diff. (group value) / Absolute dZiec, Group 3, min diff. (group value): from FIGS. 11A-11F; for Absolute dZiec, Group 1, max diff. (group value) / Absolute dZiec, Group 1, min diff. (group value) / % of control signal, Group 1, max diff. / % of control signal, Group 1, min diff. / Absolute dZiec, Group 2, max diff. (group value) / Absolute dZiec, Group 2, min diff. (group value) / % of control signal, Group 2, max diff. / % of control signal, Group 2, min diff. / Absolute dZiec, Group 3, max diff. (group value) / Absolute dZiec, Group 3, min diff. (group value) / % of control signal, Group 3, max diff. / % of control signal, Group 3, min diff.: osteoblasts; for Absolute dZiec, Group 1, max diff. (group value): AIS Group 1 value of max diff.; for Absolute dZiec, Group 1, min diff. (group value): AIS Group 1 value of min diff.; for % of control signal, Group 1, max diff.: AIS Group 1 vs maximal control value; for % of control signal, Group 1, min diff.: AIS Group 1 vs minimal control value; for Absolute dZiec, Group 2, max diff. (group value): AIS Group 2 value of max diff.; for Absolute dZiec, Group 2, min diff. (group value): AIS Group 2 value of min diff.; for % of control signal, Group 2, max diff.: AIS Group 2 vs maximal control value; for % of control signal, Group 2, min diff.: AIS Group 2 vs minimal control value; for Absolute dZiec, Group 3, max diff. (group value): AIS Group 3 value of max diff.; for Absolute dZiec, Group 3, min diff. (group value): AIS Group 3 value of min diff.; for % of control signal, Group 3, max diff.: AIS Group 3 vs maximal control value; for % of control signal, Group 3, min diff.: AIS Group 3 vs minimal control value
# Description: Bone specimens were obtained intraoperatively from vertebras (varying from T3 to L4 according to the surgical procedure performed), while with trauma cases used as non-scoliotic controls bone specimens were obtained from other anatomical sites (tibia or femur, and in one case from an iliac crest biopsy). Osteoblasts and myoblasts isolated as previously described (Moreau A, Wang D S, Forget S et al. Melatonin Signaling Dysfunction in Adolescent Idiopathic Scoliosis. Spine 2004; 29:1772-81; Azeddine et al., 2007 Molecular determinants of melatonin signaling dysfunction in adolescent idiopathic scoliosis. Clin Orthop Relat Res. 2007, 462:45-52), were cultured at 37° C./5% CO2 in MEM supplemented with 10% fetal bovine serum (FBS) and 100 μg/mL streptomycin. Prior to the experiment, cells were seeded into the CELLKEY™ label-free cellular analysis system standard 96-well plates at a density of 5×10^4/well and grown for 24 h and incubated in standard conditions (37° C./5% CO2). In some plates, Pertussis toxin (100 ng/mL, Sigma, Oakville, ON, Canada) treatment was performed 16 h before the CDS assay. Following overnight incubation, plates were placed onto the CELLKEY™ label-free cellular analysis system and growth medium was exchanged to assay buffer (Hanks, Balanced Salt Solution containing 20 mM HEPES and 0.1% BSA) before starting the experiment. Cells were then allowed to equilibrate at room temperature for 30 min. Pre-addition measurements were made for 5 min to obtain a baseline reading. […] The quick update rate (2 s.) of the CELLKEY™ label-free cellular analysis system allows detection of these immediate changes in impedance. Impedance measurements were collected for 10 min to 15 min at 28° C. after ligand addition to monitor cellular responses to ligand interaction and to generate CELLKEY™ label-free cellular analysis system response profiles that are characteristic of the signaling mechanisms used.
# The response induced by the various ligands to their receptors was measured by cellular dielectric spectroscopy (CDS) using the CELLKEY™ label-free cellular analysis technology. (MDS Sciex, San Francisco, Calif., USA). The CELLKEY™ label-free cellular analysis system integrates a proprietary impedance measurement system, custom 96-well microliter plate, onboard 96-well fluidics, and environment control and custom acquisition and analysis software in a full solution package (MDS Sciex) that is compatible with commercially available robotic platforms. Small voltage at 24 frequencies, from 1 KHz to 10 MHz, is applied to a monolayer of cells settled in a 96-well microplate containing electrodes at the bottom, and the resultant current is measured at an update rate of 2 s. […] Onboard fluid additions and exchanges are handled by 96-well head fluid delivery device with a range of 5-500 μL. In addition to the cell plate location, the CELLKEY™ label-free cellular analysis system includes two additional stations for 96- or 384-well compound plates. All aspects of assay set up, execution, and data acquisition and analysis are controlled by CELLKEY™ label-free cellular analysis software.
# The minimal (min) and maximal (max) values represent the mean of three independent measurements performed in duplicate (six values in total) for a given patient/control subject. […] Duplicates (n1 and n2) of three independent experiments are presented.
smiles,measurement,setting,value
"O=C(O)/C=C\C(=O)O.c1ccc(N2CCN(CCCOc3ccc4c(c3)OCO4)CC2)cc1 [BP554, 1-[3-(3,4-Methylenedioxyphenoxy)propyl]-4-phenyl-piperazine maleate]",% of control,"osteoblasts of AIS#1020 (Group 3) relative to CTR#60, maleate",44.5% and 42.3% and 48.5% and 45.1% and 43.7% and 46.6%
same,dZiec value,"osteoblasts of AIS#1020 (Group 3), maleate",62.57 and 64.57 and 78.63 and 76.63 and 66.6 and 74.6
same,% of control,"osteoblasts of AIS#1198 (Group 3 in Table II) relative to CTR#69, maleate",41.1% and 45.0% and 40.6% and 43.5%
same,dZiec value,"osteoblasts of AIS#1198 (Group 3 in Table II), maleate",59.83 and 64.83 and 74.63 and 70.63 and 63.73 and 71.73
same,% of control,"osteoblasts of AIS#1385 (Group 2) relative to CTR#69, maleate",50.4% and 43.4% and 51.9% and 49.0% and 46.4% and 44.8%
same,dZiec value,"osteoblasts of AIS#1385 (Group 2), maleate",73.41 and 68.41 and 86.15 and 85.15 and 72.78 and 73.78
same,% of control,"osteoblasts of AIS#1468 (Group 3) relative to CTR#61, maleate",63.8% and 66.8% and 67.5% and 69.1% and 66.0% and 67.8%
same,dZiec value,"osteoblasts of AIS#1468 (Group 3), maleate",84.51 and 96.51 and 104.4 and 112.4 and 95.45 and 103.45
same,% of control,"osteoblasts of AIS#1474 (Group 1) relative to CTR#60, maleate",28.4% and 27.5% and 31.8% and 29.7% and 28.7% and 29.1%
same,dZiec value,"osteoblasts of AIS#1474 (Group 1), maleate",39.94 and 41.94 and 51.45 and 50.45 and 43.7 and 46.7
same,% of control,"osteoblasts of AIS#1488 (Group 1) relative to CTR#69, maleate",30.2% and 29.2% and 32.7% and 30.0% and 28.8% and 32.3%
same,dZiec value,"osteoblasts of AIS#1488 (Group 1), maleate",44.06 and 46.06 and 54.24 and 52.24 and 45.15 and 53.15
same,% of control,"osteoblasts of AIS#1513 (Group 3) relative to CTR#61, maleate",68.8% and 71.4% and 73.3% and 74.6% and 71.5% and 72.9%
same,dZiec value,"osteoblasts of AIS#1513 (Group 3), maleate",91.15 and 103.15 and 113.38 and 121.38 and 103.27 and 111.27
same,% of control,"osteoblasts of AIS#1549 (Group 1) relative to CTR#61, maleate",19.7%
same,% of control,"osteoblasts of AIS#1550 (Group 2) relative to CTR#60, maleate",53.1% and 56.8% and 56.5% and 58.5% and 55.2% and 57.4%
same,dZiec value,"osteoblasts of AIS#1550 (Group 2), maleate",74.64 and 86.64 and 91.46 and 99.46 and 84.05 and 92.05
same,dZiec value,"osteoblasts of control CTR#60, maleate",140.49/— and 152.49/— and 162/— and 170/— and 152.25/— and 160.25/—
same,dZiec value,"osteoblasts of control CTR#61, maleate",132.45/— and 144.45/— and 154.6/— and 162.6/— and 144.53/— and 152.53/—
same,dZiec value,"osteoblasts of control CTR#69, maleate",145.69/— and 157.69/— and 165.87/— and 173.87/— and 156.78/— and 164.78/—
same,"Absolute dZiec, control value of max diff. (maximal control value)",,166
same,"Absolute dZiec, control value of min diff. (minimal control value)",,128
same,"Absolute dZiec, Group 1, max diff. (group value)",,32
same,"Absolute dZiec, Group 1, min diff. (group value)",,49
same,"% of control signal, Group 1, max diff.",,19%
same,"% of control signal, Group 1, min diff.",,38%
same,"Absolute dZiec, Group 2, max diff. (group value)",,67
same,"Absolute dZiec, Group 2, min diff. (group value)",,88
same,"% of control signal, Group 2, max diff.",,40%
same,"% of control signal, Group 2, min diff.",,69%
same,"Absolute dZiec, Group 3, max diff. (group value)",,99
same,"Absolute dZiec, Group 3, min diff. (group value)",,107
same,"% of control signal, Group 3, max diff.",,60%
same,"% of control signal, Group 3, min diff.",,84%
"O=C(NC1CCCCC1)c1cn(CCN2CCOCC2)c2cc(Cl)ccc2c1=O [CB65, N-Cyclohexyl-7-chloro-1-[2-(4-morpholinyl)ethyl]quinolin-4(1H)-one-3-carboxamide]",% of control,osteoblasts of AIS#1020 (Group 3) relative to CTR#60,43.1% and 47.5% and 45.6% and 43.5% and 46.2%
same,dZiec value,osteoblasts of AIS#1020 (Group 3),61.81 and 73.81 and 74.95 and 82.95 and 69.38 and 77.38
same,% of control,osteoblasts of AIS#1198 (Group 3 in Table II) relative to CTR#69,51.5% and 55.2% and 57.8% and 59.7% and 55.1% and 57.3%
same,dZiec value,osteoblasts of AIS#1198 (Group 3 in Table II),72.90 and 84.90 and 94.57 and 102.57 and 84.73 and 92.73
same,% of control,osteoblasts of AIS#1385 (Group 2) relative to CTR#69,46.7% and 50.9% and 51.8% and 54.1% and 49.8% and 52.3%
same,dZiec value,osteoblasts of AIS#1385 (Group 2),66.15 and 78.15 and 84.86 and 92.86 and 76.50 and 84.50
same,% of control,osteoblasts of AIS#1468 (Group 3) relative to CTR#61,57.0% and 60.3% and 64.0% and 65.6% and 61.0% and 62.9%
same,dZiec value,osteoblasts of AIS#1468 (Group 3),82.16 and 94.16 and 107.91 and 115.91 and 96.04 and 104.04
same,% of control,osteoblasts of AIS#1474 (Group 1) relative to CTR#60,25.3% and 24.7% and 26.9% and 24.6% and 23.5% and 27.2%
same,dZiec value,osteoblasts of AIS#1474 (Group 1),36.30 and 38.30 and 46.79 and 44.79 and 37.55 and 45.55
same,% of control,osteoblasts of AIS#1488 (Group 1) relative to CTR#69,29.2% and 28.2% and 33.2% and 30.5% and 28.5% and 32.1%
same,dZiec value,osteoblasts of AIS#1488 (Group 1),41.30 and 43.30 and 54.43 and 52.43 and 43.87 and 51.87
same,% of control,osteoblasts of AIS#1513 (Group 3) relative to CTR#61,74.8% and 76.7% and 76.6% and 77.6% and 75.9% and 77.1%
same,dZiec value,osteoblasts of AIS#1513 (Group 3),107.73 and 119.73 and 129.10 and 137.10 and 119.41 and 127.41
same,% of control,osteoblasts of AIS#1549 (Group 1) relative to CTR#61,25.3% and 18.2% and 19.1% and 22.8% and 19.3% and 23.2%
same,dZiec value,osteoblasts of AIS#1549 (Group 1),36.48 and 28.48 and 32.23 and 40.23 and 30.36 and 38.36
same,% of control,osteoblasts of AIS#1550 (Group 2) relative to CTR#60,38.5% and 36.8% and 38.3% and 35.5% and 35.6% and 38.7%
same,dZiec value,osteoblasts of AIS#1550 (Group 2),55.13 and 57.13 and 66.49 and 64.49 and 56.81 and 64.81
same,dZiec value,osteoblasts of control CTR#60,143.28/— and 155.28/— and 173.77/— and 181.77/— and 159.53/— and 167.53/—
same,dZiec value,osteoblasts of control CTR#61,144.08/— and 156.08/— and 168.59/— and 176.59/— and 157.34/— and 165.34/—
same,dZiec value,osteoblasts of control CTR#69,141.68/— and 153.68/— and 163.73/— and 171.73/— and 153.70/— and 161.70/—
same,"Absolute dZiec, control value of max diff. (maximal control value)",,169
same,"Absolute dZiec, control value of min diff. (minimal control value)",,138
same,"Absolute dZiec, Group 1, max diff. (group value)",,34
same,"Absolute dZiec, Group 1, min diff. (group value)",,47
same,"% of control signal, Group 1, max diff.",,20%
same,"% of control signal, Group 1, min diff.",,34%
same,"Absolute dZiec, Group 2, max diff. (group value)",,60
same,"Absolute dZiec, Group 2, min diff. (group value)",,88
same,"% of control signal, Group 2, max diff.",,36%
same,"% of control signal, Group 2, min diff.",,64%
same,"Absolute dZiec, Group 3, max diff. (group value)",,100
same,"Absolute dZiec, Group 3, min diff. (group value)",,123
same,"% of control signal, Group 3, max diff.",,55%
same,"% of control signal, Group 3, min diff.",,89%
